Our source for the IC50 values is patent publication US9012443B2 (Amgen Inc., priority 2011, dated 2015).

Format in all cases: cell-based
One data set concerns the target Nav 1.5 (Homo sapiens (Human), UniProt Q14524). The data set is described as follows: Nav 1.5 in vitro PX assay (PatchXpress whole cell voltage clamp). A digest of the protocol: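 HEK293 cells stably expressing Nav 1.5, whole-cell voltage clamp held at −50 mV; 20 msec test pulses to 0 mV at 0.1 Hz, each preceded by a step to −120 mV.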
For data set [1], the target named is T1, Nav 1.7 (Homo sapiens (Human), UniProt Q15858). Briefly: Nav 1.7 IWQ in vitro assay (IonWorks Quattro population patch-clamp). The conditions noted are these: 293 cells stably transfected with Nav 1.7; first part of table; read-out: Nav 1.7 IWQ IC50. A digest of the protocol:
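HEK293 cells stably expressing Nav 1.7, recorded by automated population patch-clamp with a train of depolarizations producing increasing inactivation. Single compound concentration added during 3–8 min unclamped period, then same protocol repeated. Leak-corrected current at 26th pulse to −20 mV gave percent block (duplicate); IC50 fitted from concentration–block curves.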
In general terms: The patch-clamp technique gives a direct electrical read-out from membranes.

Data set [2] concerns the target T1, Nav 1.7. The data set is described as follows: Nav 1.7 in vitro PX assay (PatchXpress whole cell voltage clamp). The conditions noted are these: 293 cells, human Nav1.7, partially inactivated state; read-out: Nav1.7 PX IC50 IP. A digest of the protocol:
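HEK293 cells stably expressing human Nav1.7, whole-cell voltage clamp on PatchXpress, held at potential giving 20–50% inactivation; current elicited by 20 msec pulse to −10 mV.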

Setting [3] is: 293 cells stably transfected with Nav 1.5, first part of table, read-out: Nav 1.5 PX IC50.
The mark [4] stands for this setting: 293 cells stably transfected with Nav 1.5, second part of table, read-out: Nav1.5 PX IC50.

Like-named read-outs stand apart in the source and are kept apart here.

T1 sequence (Q15858 whole entry): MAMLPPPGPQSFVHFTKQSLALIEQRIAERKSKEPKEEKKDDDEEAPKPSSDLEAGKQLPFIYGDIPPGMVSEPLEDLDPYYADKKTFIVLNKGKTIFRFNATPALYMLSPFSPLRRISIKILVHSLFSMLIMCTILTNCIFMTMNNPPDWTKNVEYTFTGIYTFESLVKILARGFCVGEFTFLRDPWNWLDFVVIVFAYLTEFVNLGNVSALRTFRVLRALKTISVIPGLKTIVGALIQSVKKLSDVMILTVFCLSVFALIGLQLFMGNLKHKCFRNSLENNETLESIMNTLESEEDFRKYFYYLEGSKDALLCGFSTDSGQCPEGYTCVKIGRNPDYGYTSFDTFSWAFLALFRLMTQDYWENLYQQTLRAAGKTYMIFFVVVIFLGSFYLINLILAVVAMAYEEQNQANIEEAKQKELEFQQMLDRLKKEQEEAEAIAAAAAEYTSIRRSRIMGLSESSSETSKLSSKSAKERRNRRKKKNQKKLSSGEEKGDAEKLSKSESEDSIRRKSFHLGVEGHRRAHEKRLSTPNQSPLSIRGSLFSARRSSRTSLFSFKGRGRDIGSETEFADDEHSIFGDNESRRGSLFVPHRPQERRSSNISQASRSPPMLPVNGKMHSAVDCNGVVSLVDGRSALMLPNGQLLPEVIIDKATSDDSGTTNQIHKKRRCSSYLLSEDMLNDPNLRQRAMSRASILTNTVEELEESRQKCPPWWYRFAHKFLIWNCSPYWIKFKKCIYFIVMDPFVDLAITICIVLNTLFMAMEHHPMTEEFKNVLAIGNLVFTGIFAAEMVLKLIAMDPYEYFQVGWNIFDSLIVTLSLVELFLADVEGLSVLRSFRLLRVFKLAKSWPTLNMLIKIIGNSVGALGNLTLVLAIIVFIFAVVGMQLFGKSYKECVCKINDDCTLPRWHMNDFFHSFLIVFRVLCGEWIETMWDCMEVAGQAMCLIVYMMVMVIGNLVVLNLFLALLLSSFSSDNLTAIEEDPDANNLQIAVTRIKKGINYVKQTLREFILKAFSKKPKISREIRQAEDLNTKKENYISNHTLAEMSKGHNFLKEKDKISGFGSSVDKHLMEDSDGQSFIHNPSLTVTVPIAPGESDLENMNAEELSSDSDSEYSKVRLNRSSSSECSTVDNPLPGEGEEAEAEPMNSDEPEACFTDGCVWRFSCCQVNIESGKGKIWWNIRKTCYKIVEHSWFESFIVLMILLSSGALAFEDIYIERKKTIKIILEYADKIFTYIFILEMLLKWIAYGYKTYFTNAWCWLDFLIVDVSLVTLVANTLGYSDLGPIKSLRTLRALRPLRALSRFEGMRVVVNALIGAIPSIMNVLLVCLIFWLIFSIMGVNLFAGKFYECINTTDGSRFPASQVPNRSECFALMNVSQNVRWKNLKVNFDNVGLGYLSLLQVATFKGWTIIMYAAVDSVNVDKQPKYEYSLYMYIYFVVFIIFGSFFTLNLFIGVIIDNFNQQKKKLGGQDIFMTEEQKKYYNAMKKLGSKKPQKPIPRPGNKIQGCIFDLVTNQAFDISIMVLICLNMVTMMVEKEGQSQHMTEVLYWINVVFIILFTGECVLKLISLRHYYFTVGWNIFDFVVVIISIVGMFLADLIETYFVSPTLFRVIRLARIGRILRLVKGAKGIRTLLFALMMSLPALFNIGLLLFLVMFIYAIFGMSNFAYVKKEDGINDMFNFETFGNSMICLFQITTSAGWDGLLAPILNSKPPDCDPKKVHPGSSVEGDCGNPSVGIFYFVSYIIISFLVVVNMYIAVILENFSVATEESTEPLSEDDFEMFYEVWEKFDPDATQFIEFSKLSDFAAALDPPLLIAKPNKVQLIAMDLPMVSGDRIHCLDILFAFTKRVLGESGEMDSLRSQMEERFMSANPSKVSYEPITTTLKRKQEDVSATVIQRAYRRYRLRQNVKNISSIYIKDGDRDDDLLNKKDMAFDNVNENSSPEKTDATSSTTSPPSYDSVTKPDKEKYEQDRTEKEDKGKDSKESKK
Sequence of Nav 1.5 (Q14524 whole entry): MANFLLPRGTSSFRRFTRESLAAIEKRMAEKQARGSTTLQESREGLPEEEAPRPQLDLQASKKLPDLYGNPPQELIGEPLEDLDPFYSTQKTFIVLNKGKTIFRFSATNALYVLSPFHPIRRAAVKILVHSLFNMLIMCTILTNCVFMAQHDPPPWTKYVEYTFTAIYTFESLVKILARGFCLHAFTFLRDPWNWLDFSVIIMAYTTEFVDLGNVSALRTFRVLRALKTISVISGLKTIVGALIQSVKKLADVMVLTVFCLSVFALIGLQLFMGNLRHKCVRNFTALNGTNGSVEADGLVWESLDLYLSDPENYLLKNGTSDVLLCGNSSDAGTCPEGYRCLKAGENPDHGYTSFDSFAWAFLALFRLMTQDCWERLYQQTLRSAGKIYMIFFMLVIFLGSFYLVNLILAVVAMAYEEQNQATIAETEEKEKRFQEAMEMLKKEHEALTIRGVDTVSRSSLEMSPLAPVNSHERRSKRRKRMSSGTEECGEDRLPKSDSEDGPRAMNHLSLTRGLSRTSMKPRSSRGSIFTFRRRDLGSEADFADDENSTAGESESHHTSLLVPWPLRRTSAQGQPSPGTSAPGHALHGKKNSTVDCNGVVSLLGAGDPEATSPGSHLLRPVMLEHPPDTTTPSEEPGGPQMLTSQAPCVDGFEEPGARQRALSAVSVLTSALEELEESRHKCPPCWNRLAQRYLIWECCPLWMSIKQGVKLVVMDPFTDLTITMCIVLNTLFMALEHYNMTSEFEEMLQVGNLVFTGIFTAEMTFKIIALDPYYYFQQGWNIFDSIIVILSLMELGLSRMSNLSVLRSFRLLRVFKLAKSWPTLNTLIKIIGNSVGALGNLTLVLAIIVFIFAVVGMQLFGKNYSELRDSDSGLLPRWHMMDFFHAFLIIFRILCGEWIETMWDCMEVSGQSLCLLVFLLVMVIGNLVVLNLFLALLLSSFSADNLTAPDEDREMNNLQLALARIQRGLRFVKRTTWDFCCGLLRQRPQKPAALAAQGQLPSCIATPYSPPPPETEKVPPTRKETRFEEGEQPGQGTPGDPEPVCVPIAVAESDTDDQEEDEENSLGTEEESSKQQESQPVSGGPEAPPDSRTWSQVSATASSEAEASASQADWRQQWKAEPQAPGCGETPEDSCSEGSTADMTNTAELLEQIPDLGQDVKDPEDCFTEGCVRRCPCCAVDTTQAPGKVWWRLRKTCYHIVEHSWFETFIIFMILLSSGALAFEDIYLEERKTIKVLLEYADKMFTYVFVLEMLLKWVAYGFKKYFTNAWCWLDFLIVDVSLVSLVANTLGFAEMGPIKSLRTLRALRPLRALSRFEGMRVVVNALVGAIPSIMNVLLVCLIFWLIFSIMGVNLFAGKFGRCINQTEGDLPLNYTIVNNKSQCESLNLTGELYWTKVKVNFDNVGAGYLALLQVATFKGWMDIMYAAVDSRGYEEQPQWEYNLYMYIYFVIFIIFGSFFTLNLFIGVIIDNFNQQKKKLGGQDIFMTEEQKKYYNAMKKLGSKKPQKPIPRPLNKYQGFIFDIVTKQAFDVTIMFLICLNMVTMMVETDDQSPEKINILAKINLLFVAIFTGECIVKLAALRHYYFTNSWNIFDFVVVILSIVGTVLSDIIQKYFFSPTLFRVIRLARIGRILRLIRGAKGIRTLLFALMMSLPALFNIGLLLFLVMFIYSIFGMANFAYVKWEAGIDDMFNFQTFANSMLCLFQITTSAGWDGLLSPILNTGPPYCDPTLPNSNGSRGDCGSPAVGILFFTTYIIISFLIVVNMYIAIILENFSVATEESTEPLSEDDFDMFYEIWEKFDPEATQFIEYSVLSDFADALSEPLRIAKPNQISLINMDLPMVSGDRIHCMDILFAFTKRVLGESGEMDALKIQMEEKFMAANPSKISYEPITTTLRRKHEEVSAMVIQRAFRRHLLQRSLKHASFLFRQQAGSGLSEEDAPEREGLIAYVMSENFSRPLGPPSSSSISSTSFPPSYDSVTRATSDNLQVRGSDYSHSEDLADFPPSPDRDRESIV

Broadly, the IC50 is the midpoint of a concentration-inhibition curve. For `O=S(=O)(Nc1ncns1)c1ccc2c(-c3ccc(Cl)cc3-c3ccncc3)cccc2c1` [Example 28], the IC50 is more than 30 µM on Nav 1.5 (setting [3]) and 0.05 µM at Nav 1.7 [1].
In the same order, the values of `O=S(=O)(Nc1ncns1)c1ccc2c(-c3ccc(Cl)cc3C(F)(F)F)cccc2c1` [Example 39] are 7.77 µM and 1.54 µM.
In the same order, the values of `O=S(=O)(Nc1ncns1)c1ccc2c(-c3ccccc3Cl)cccc2c1` [Example 8] are 21.3 µM and 0.2 µM.
For the molecule `O=S(=O)(Nc1ncns1)c1ccc2c(-c3ccc(C(F)(F)F)cc3-c3ccncc3)nccc2c1` [Example 53, 1-(2-(PYRIDIN-4-YL)-4-(TRIFLUOROMETHYL)PHENYL)-N-(1,2,4-THIADIAZOL-5-YL)ISOQUINOLINE-6-SULFONAMIDE], the IC50 is more than 30 µM on Nav 1.5 (setting [3]) and 0.07 µM at Nav 1.7 [1].
As to `N#Cc1cc(C(F)(F)F)ccc1-c1cccc2cc(S(=O)(=O)Nc3ncns3)ccc12` [Example 22], the IC50 is more than 30 µM on Nav 1.5 (setting [3]) and 0.04 µM on Nav 1.7 [1].
For `O=S(=O)(Nc1ncns1)c1ccc2c(-c3ccc(C(F)(F)F)cc3Br)cccc2c1` [Example 23], in that order: 20.7 µM and 0.11 µM.
With `O=S(=O)(Nc1nccs1)c1ccc2c(-c3ccc(C(F)(F)F)cc3Cl)nccc2c1` [Example 51, 1-(2-CHLORO-4-(TRIFLUOROMETHYL)PHENYL)-N-(THIAZOL-2-YL)ISOQUINOLINE-6-SULFONAMIDE], the IC50 at Nav 1.5 (setting [3]) is more than 30 µM; on Nav 1.7 [1] it was 0.11 µM.
In the same order, the values of `COc1cc(C(F)(F)F)ccc1-c1cccc2cc(S(=O)(=O)Nc3ncns3)ccc12` [Example 12] are 11.6 µM and 0.01 µM.
For `Cc1cc(C(F)(F)F)ccc1-c1cccc2cc(S(=O)(=O)Nc3ncns3)ccc12` [Example 11], in that order: 5.07 µM and 0.08 µM.
In the same order, the values of `O=S(=O)(Nc1ncns1)c1ccc2c(N3CCOC(c4ccccc4)C3)cccc2c1` (single isomer, unassigned) [14 (isomer 2), 5-(2-phenylmorpholino)-N-(1,2,4-thiadiazol-5-yl)naphthalene-2-sulfonamide] are more than 30 µM and 1.8 µM.
On to `O=S(=O)(Nc1ncns1)c1ccc2c(-c3ccccc3)cccc2c1` [Example 9], for which the figures for the IC50 at Nav 1.5 (setting [3]) and on Nav 1.7 [1] were 23.8 µM and 0.46 µM, respectively.
Consider `O=S(=O)(Nc1ncns1)c1ccc2c(-c3ccc(Cl)cc3-c3cn[nH]c3)cccc2c1` [Example 27, 5-(4-CHLORO-2-(1H-PYRAZOL-4-YL)PHENYL)-N-(1,2,4-THIADIAZOL-5-YL)NAPHTHALENE-2 SULFONAMIDE], for which the half-maximal inhibitory concentration (IC50) is more than 30 µM at Nav 1.5 (setting [3]) and 0.02 µM at Nav 1.7 [1].
For `O=S(=O)(Nc1ncns1)c1ccc2c(-c3ccc(C(F)(F)F)cc3-c3ccncc3)cccc2c1` [Example 2], the IC50 was more than 30 µM on Nav 1.5 (setting [3]) and 0.03 µM on Nav 1.7 [1].
On to `O=S(=O)(Nc1ncns1)c1ccc2c(-c3ccc(C(F)(F)F)cc3-c3cn[nH]c3)nccc2c1` [Example 55, 1-(2-(1H-PYRAZOL-4-YL)-4-(TRIFLUOROMETHYL)PHENYL)-N-(1,2,4-THIADIAZOL-5-YL)ISOQUINOLINE-6-SULFONAMIDE], for which the IC50 was more than 30 µM at Nav 1.5 (setting [3]) and 0.01 µM at Nav 1.7 [1].
For `O=S(=O)(Nc1ncns1)c1ccc2c(-c3ccc(C(F)(F)F)cc3Br)nccc2c1` [Example 50, 1-(2-BROMO-4-(TRIFLUOROMETHYL)PHENYL)-N-(1,2,4-THIADIAZOL-5-YL)ISOQUINOLINE-6-SULFONAMIDE], the IC50 was more than 30 µM on Nav 1.5 (setting [3]) and 0.03 µM at Nav 1.7 [1].
For `O=S(=O)(Nc1ncns1)c1ccc2c(-c3ccc(OC(F)(F)F)cc3Cl)cccc2c1` [Example 4], in that order: 10.9 µM and 0.9 µM.
As for `O=S(=O)(Nc1ncns1)c1ccc2c(-c3ccc(F)cc3Cl)cccc2c1` [Example 5], the IC50 worked out at 23.8 µM on Nav 1.5 (setting [3]) and 0.17 µM at Nav 1.7 [1].
In the same order, the values of `CCOc1cc(C(F)(F)F)ccc1-c1cccc2cc(S(=O)(=O)Nc3ncns3)ccc12` [Example 10] are 6.68 µM and 0.05 µM.
For `O=S(=O)(Nc1ncns1)c1ccc2c(-c3ccc(C(F)(F)F)cc3Cl)cccc2c1` [Example 29], in that order: more than 30 µM and 0.05 µM.
`O=S(=O)(Nc1ncns1)c1ccc2c(-c3ccc(Cl)cc3C3=CCNCC3)cccc2c1` [Example 26]: the IC50 against Nav 1.5 is more than 30 µM; at Nav 1.7 [1], 0.02 µM.
`Cn1nccc1-c1cc(Cl)ccc1-c1cccc2cc(S(=O)(=O)Nc3ncns3)ccc12` [Example 25]: the figures for the IC50 at Nav 1.5 (setting [3]) and at Nav 1.7 [1] were more than 30 µM and 0.05 µM, respectively.
Regarding `Cn1nccc1-c1cc(C(F)(F)F)ccc1-c1cccc2cc(S(=O)(=O)Nc3nccs3)ccc12` [Example 47], the figures for the IC50 on Nav 1.5 (setting [3]) and on Nav 1.7 [1] were 5.82 µM and 0.27 µM, respectively.
In the same order, the values of `O=S(=O)(Nc1ncns1)c1ccc2c(-c3ccc(Cl)cc3Cl)cccc2c1` [Example 40] are more than 30 µM and 1.97 µM.
As to `COc1ccccc1-c1ncnc2cc(S(=O)(=O)Nc3nccs3)ccc12` [Example 272, 4-(2-METHOXYPHENYL)-N-(THIAZOL-2-YL)QUINAZOLINE-7-SULFONAMIDE], the IC50 was more than 30 µM on Nav 1.5 (setting [4]) and 0.46 µM on Nav 1.7 [2].
With `COc1cc(-c2cccc(F)c2)ccc1-c1ncnc2cc(S(=O)(=O)Nc3ccncn3)ccc12` [Example 527, 4-(3′-FLUORO-3-METHOXY-[1,1′-BIPHENYL]-4-YL)-N-(PYRIMIDIN-4-YL)QUINAZOLINE-7-SULFONAMIDE], the IC50 at Nav 1.5 (setting [4]) was more than 30 µM; on Nav 1.7 [2], 0.252 µM.
For `COc1cc(-c2cc(C)cc(Cl)c2)ccc1-c1nccc2cc(S(=O)(=O)Nc3ccncn3)ccc12` [Example 495, 1-(3′-CHLORO-3-METHOXY-5′-METHYL-[1,1′-BIPHENYL]-4-YL)-N-(PYRIMIDIN-4-YL)ISOQUINOLINE-6-SULFONAMIDE], in that order: 19.1 µM and 0.095 µM.
For `O=S(=O)(Nc1ncns1)c1ccc2c(-c3ccc(F)cc3Br)cccc2c1` [Example 3], the figures for the IC50 at Nav 1.5 (setting [3]) and on Nav 1.7 [1] were 24.2 µM and 0.09 µM, respectively.
Turning to `COc1cc(C(F)F)c(C2CC2)cc1-c1nccc2cc(S(=O)(=O)Nc3ccncn3)ccc12` [Example 459, 1-(5-CYCLOPROPYL-4-(DIFLUOROMETHYL)-2-METHOXYPHENYL)-N-(PYRIMIDIN-4-YL)ISOQUINOLINE-6-SULFONAMIDE], the figures for the IC50 at Nav 1.5 (setting [4]) and at Nav 1.7 [2] were more than 30 µM and 0.532 µM, respectively.
Turning to `COc1cc(C(F)(F)F)ccc1-c1ncc(O)c2cc(S(=O)(=O)Nc3nccs3)ccc12` [Example 232, 4-HYDROXY-1-(2-METHOXY-4-(TRIFLUOROMETHYL)PHENYL)-N-(THIAZOL-2-YL)ISOQUINOLINE-6-SULFONAMIDE], the IC50 at Nav 1.5 (setting [4]) stood at 20.4 µM; on Nav 1.7 [2] it was 0.38 µM.
In the same order, the values of `N#CCOc1cc(C(F)(F)F)ccc1-c1nccc2cc(S(=O)(=O)Nc3nccs3)ccc12` [Example 374, 1-(2-(CYANOMETHOXY)-4-(TRIFLUOROMETHYL)PHENYL)-N-(THIAZOL-2-YL)ISOQUINOLINE-6-SULFONAMIDE] are more than 30 µM and 0.309 µM.
In the same order, the values of `N#CCOc1cc(F)ccc1-c1nccc2cc(S(=O)(=O)Nc3nccs3)ccc12` [Example 192, 1-(2-(CYANOMETHOXY)-4-FLUOROPHENYL)-N-(THIAZOL-2-YL)ISOQUINOLINE-6-SULFONAMIDE] are more than 30 µM and 0.33 µM.
